In ChEMBL document CHEMBL1128777, “Inhibition of metalloproteinase by futoenone derivatives” (Bioorg Med Chem Lett, 1995):
pIC50: −log10 of the molar value.

Key:
Stromelysin-1 [1] = biological target: T1, Stromelysin-1 (Homo sapiens, UniProt P08254); assay: (§1) Inhibition of human recombinant matrix metalloprotease-3 (Stromelysin) at 10 uM
Target sequence in this assay (P08254 100-477 limits assumed): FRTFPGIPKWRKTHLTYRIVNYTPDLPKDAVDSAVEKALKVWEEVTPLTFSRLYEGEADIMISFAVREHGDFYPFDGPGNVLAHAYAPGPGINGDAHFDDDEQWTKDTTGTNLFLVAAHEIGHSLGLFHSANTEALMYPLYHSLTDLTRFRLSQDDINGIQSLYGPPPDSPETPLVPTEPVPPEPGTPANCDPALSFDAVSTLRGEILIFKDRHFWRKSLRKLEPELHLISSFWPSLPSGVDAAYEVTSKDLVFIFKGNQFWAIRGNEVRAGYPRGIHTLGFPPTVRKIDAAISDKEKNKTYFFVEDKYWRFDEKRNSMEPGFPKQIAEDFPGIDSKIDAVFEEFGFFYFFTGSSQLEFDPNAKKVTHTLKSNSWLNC

[2] = biological target: T2, Interstitial collagenase (Homo sapiens) (UniProt P03956); assay: Inhibition of human recombinant interstitial collagenase MMP-1 at 10 uM
T2 sequence (whole entry): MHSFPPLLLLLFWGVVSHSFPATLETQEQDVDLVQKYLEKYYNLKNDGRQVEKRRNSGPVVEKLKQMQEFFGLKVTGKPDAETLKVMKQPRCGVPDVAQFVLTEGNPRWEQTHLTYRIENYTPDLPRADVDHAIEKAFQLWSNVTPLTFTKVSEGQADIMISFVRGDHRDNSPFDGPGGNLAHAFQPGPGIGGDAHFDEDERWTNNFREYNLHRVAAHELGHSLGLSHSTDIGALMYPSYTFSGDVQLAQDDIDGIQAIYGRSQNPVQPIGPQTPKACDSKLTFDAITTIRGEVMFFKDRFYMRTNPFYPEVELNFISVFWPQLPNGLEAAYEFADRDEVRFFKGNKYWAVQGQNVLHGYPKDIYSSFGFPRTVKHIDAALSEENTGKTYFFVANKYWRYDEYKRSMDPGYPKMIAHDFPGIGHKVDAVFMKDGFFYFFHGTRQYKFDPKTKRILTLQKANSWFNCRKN

[3] = biological target: Matrix metalloproteinase-9 (Homo sapiens) (UniProt P14780); assay: Inhibition of human recombinant 92 kDa gelatinase MMP-9 at 10 uM
Sequence of Matrix metalloproteinase-9 (Homo sapiens) (P14780 whole entry): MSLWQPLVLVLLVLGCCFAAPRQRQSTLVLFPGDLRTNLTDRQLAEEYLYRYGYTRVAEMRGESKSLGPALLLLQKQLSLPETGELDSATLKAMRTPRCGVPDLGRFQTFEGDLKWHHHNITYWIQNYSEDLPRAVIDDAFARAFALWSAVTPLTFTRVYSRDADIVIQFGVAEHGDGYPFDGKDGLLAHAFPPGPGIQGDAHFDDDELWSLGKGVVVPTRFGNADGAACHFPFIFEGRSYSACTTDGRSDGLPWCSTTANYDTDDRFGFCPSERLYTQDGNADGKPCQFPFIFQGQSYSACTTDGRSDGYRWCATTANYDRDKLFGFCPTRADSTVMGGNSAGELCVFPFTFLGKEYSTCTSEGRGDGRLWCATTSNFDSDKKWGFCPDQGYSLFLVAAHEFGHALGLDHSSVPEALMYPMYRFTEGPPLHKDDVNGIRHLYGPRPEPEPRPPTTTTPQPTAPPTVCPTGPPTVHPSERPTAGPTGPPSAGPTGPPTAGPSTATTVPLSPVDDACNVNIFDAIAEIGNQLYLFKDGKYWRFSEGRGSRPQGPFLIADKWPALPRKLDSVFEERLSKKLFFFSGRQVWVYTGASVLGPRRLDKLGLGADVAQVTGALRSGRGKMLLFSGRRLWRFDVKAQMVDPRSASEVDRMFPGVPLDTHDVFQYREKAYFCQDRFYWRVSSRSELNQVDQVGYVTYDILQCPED

Stromelysin-1 [4] = biological target: T1, Stromelysin-1; assay: as §1; remark: listed apart in the source
Target sequence in this assay (P08254 whole entry): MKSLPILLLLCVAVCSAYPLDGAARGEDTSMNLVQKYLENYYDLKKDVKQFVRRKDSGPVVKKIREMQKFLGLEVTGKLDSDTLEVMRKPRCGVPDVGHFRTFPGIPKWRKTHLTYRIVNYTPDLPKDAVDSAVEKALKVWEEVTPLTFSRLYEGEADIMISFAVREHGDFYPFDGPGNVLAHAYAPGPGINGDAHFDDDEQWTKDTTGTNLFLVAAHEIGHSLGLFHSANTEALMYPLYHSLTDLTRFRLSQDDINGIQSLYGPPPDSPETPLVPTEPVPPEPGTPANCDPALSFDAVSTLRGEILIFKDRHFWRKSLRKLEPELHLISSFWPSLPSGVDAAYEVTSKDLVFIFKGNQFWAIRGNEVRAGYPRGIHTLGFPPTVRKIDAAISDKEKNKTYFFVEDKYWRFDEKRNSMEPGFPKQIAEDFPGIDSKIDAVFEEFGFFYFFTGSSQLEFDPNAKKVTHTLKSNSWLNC

Stromelysin-1 [5] = biological target: T1, Stromelysin-1; assay: Inhibition of human recombinant matrix metalloprotease-3 (Stromelysin) at 100 uM
Target sequence in this assay (P08254 whole entry): as above

Row | SMILES | inhibition (Stromelysin-1 [1]) [%] | inhibition [2] [%] | inhibition [3] [%] | pIC50 (Stromelysin-1 [4]) | pIC50 (Stromelysin-1 [5])
1 | COC1=C[C@]23C[C@H](C[C@H](c4ccc5c(c4)OCO5)[C@H]2C)OC3=CC1=S | 42 | 0 | 0 |  | 
2 | C=CCc1c(O)c(OC)cc2c1O[C@@H](C[C@H](c1ccc3c(c1)OCO3)C(C)O)C2 (stereo not given in full) | 36 | 0 | 0 |  | 
3 | COC1=C[C@]23C[C@H](C[C@H](c4ccc5c(c4)OCO5)[C@H]2C)OC3=CC1=O [FUTOENONE] | 35 | 16 | 0 | > 6.00 | 
4 | COc1cc2c(cc1SC(C)=O)O[C@@H](C[C@H](c1ccc3c(c1)OCO3)C(C)OC(C)=O)C2 (stereo not given in full) | 58 | 23 | 8 |  | 
5 | CNC(=O)[C@H](Cc1c[nH]c2ccccc12)NC(=O)[C@@H](CC(=O)NO)CC(C)C [ILOMASTAT] | 100 | 100 | 100 |  | 7.55
6 | COc1cc2c(cc1S)O[C@@H](C[C@H](c1ccc3c(c1)OCO3)C(C)O)C2 (stereo not given in full) | 98 | 75 | 44 | 6.22 | 
7 | COC1=C[C@]23C[C@H](C[C@H](c4ccc5c(c4)OCO5)[C@H]2C)OC3=C(Br)C1=O | 38 | 0 | 22 |  | 
8 | COC1=C[C@]23C[C@H](C[C@H](c4cc5c(cc4Br)OCO5)[C@H]2C)OC3=C(Br)C1=O | 38 | 0 | 0 |  | 
9 | COc1cc2c(cc1O)O[C@@H](C[C@H](c1ccc3c(c1)OCO3)C(C)O)C2 (stereo not given in full) | 34 | 0 | 0 |  | 
